Data set [1] concerns A. fumigatus. As to the kind of experiment: Planktonic MIC, CLSI guidelines. The format is cell-based. Conditions: Aspergillus fumigatus, read-out: MIC. The protocol: (§1) Minimum inhibitory concentrations were determined using CLSI guidelines (Beattie & Krysan, 2021; Wiederhold, 2021). All yeasts were cultured overnight in 3 mL YPD at 30° C., then washed twice in sterile PBS. Two-fold serial dilutions of each compound were prepared in RMPI+MOPS pH 7 (Gibco RPMI 1640 with L-glutamine [11875-093] and 0.165M 352 MOPS), then 1×10^3 cells were added per well. Plates were incubated at 37° C. for 24 hours (C. albicans and S. cerevisiae) or 72 hours (C. neoformans). For A. fumigatus and F. oxysporum wells were inoculated with 1.25×10^4 conidia. Plates were incubated at 37° C. for 48 hours for A. fumigatus and 72 hours for F. oxysporum. All MICs are defined as the well with complete growth inhibition as determined by visual inspection with the exception of MICs of fluconazole against C. albicans where the MIC is defined as at least 50% reduction in growth compared to the control.

Data set [2] has as its system C. glabrata. In words: Planktonic MIC, CLSI guidelines. The class given is cell-based. Conditions: Nakaseomyces glabratus; strain KK2001. How it is done: as §1
Data set [3] deals with C. neoformans. In words: Planktonic MIC, CLSI guidelines. Conditions: Cryptococcus neoformans. The format is cell-based. How it is done:
as §1

Data set [4] concerns F. oxysporum. As to the kind of experiment: Planktonic MIC, CLSI guidelines. The format is cell-based. Conditions: Fusarium oxysporum; strain DUMC Fo. The protocol:
as §1

Data set [5] deals with P. aeruginosa. In words: Antibacterial MIC. The class given is cell-based, Pseudomonas aeruginosa.
For data set [6], the system named is S. aureus. As to the kind of experiment: Antibacterial MIC. The format is cell-based. The conditions noted are these: Staphylococcus aureus; strain Newman.
Data set [7] deals with C. albicans SC5314 biofilms. As to the kind of experiment: Biofilm phase antifungal activity assay (XTT reduction). The class given is cell-based, Candida albicans. How it is done:
These assays were performed as previously described (Mao et al., 2020; Ramage et al., 2001). C. albicans and C. auris, overnight cultures were washed in sterile PBS and adjusted to 1×10^6 CFU/mL in RPMI+MOPS pH 7. 100 μL cells were added to each well and incubated at 37° C. for 24 hours. A two-fold dilution series of the compounds was prepared in RPMI+MOPS with equal vehicle concentrations. Media was removed and biofilms were gently washed with PBS, then 200 μL of each drug dilution was added to wells and plates were incubated at 37° C. for an additional 24 hours. Media was removed and biofilms were gently washed with PBS, then 100 μL of XTT solution (0.83 mg/mL XTT sodium salt [Sigma, Cat #X4626]+32 μg/mL PMS [Sigma, Cat #P9625] in PBS) was added to each well. Plates were incubated at 37° C. for 30 minutes, then the absorbance was measured at 490 nm.
The metabolic activity of the biofilms was then assayed using the standard XXT reduction assay (Ramage et al., 2001). […] The biofilm activity of compound A was reduced by 4-fold relative to planktonic growth (MIC 4 μg/mL, Table 2).
(Tetrazolium dyes change colour on reduction, which living cells bring about.)

For data set [8], the system named is red blood cells. In words: Red blood cell lysis assay. The class given is cell-based, sheep. Conditions: 2 h, normalized to max lysis by triton-x. How it is done: Hemolysis assays were performed with defibrinated sheep's blood (Lampire, Cat #7239001). Blood was washed three times with PBS then resuspended to about 50% hematocrit in PBS. A two-fold dilution series of the compounds in 200 μL PBS with equal DMSO concentration across the series, then red blood cells were added with a final concentration of 2% hematocrit. Cells were incubated at RT for 2 hours in a v-bottom microtiter plate, then plates were spun down and supernatant was transferred to a flat bottom microtiter plate for absorbance measurement at 570 nm. Compounds were tested in technical triplicate in at least two independent assays performed on different days.

In data set [9] the test system is C. auris. As to the kind of experiment: Ex vivo porcine skin model of Candida auris colonization. The protocol: The collection of porcine skin samples was conducted under protocols approved by the University of Wisconsin-Madison Institutional Animal Care and Use Committee in accordance with published National Institutes of Health (NIH) and United States Department of Agriculture (USDA) guidelines. Excised skin was cleaned and shaved as described previously (Johnson et al., 2022). Full-thickness samples were obtained by 12 mm punch and placed in 12-well plates containing 3 mL Dulbecco's Modified Eagle Medium (DMEM) (Lonza, Walkersville, MD, USA) supplemented with 10% fetal bovine serum (FBS) (Atlanta biologicals, Lawrenceville, GA, USA), penicillin (1,000 U/mL), and streptomycin (1 mg/mL) (Corning, Manassas, VA, USA) for 6 hours. Tissues were rinsed in DBPS and moved to semi-solid media (6:4 ratio of 1% agarose (BIO-RAD, Hercules, CA, USA) in DPBS:DMEM with 10% FBS). Paraffin wax was applied around the edge of the skin and 10 μL C. auris suspended in synthetic sweat medium at 10^7 cells/mL was applied. Samples were incubated at 24 hours and compound A (8 μg/mL or 16 μg/mL) in synthetic sweat medium was applied. After 24 hours a sterile swab was used to remove compound from skin surface. Samples were vortexed in DPBS and plated on YPD+chloramphenicol to assess viable burden.

SMILES strings stand for the structures. Where two headings read alike, the source gives them in different places.

The values below come from patent US20260274828A1, “BROAD SPECTRUM ANTIFUNGAL KETO-ALKYL-PYRIDINIUM COMPOUNDS” (priority 2023, published 2026).

As usually defined, the MIC is the least concentration at which growth counts as inhibited. Usually IC50 stands for the concentration at which inhibition is half-maximal. Turning to `Nc1cc[n+](CC(=O)c2ccc3c(c2)OC(c2ccccc2)(c2ccccc2)O3)cc1.[Cl-]` [Compound A], the MIC came to 2 µg/mL in [1] (strain AF293); 32 µg/mL in data set [1] (strain CEA10); 64 µg/mL in data set [1] (strain CFF S001); 4 µg/mL in data set [1] (strain CFF S003); 64 µg/mL in data set [1] (strain CFF S007); 64 µg/mL in [1] (strain CFF S008). Moreover, the MIC in data set [1] (strain CFF S014) was found to be 8 µg/mL; in [1] (strain CFF S029), 4 µg/mL; in data set [1] (strain Cas^R), 32 µg/mL; in data set [1] (strain SPF98), 64 µg/mL; in [2] it was 4 µg/mL; in data set [3] (strain DUMC 118.00) it was 4 µg/mL. The MIC in [3] (strain DUMC 122.01) is 4 µg/mL; in data set [3] (strain H99), 4 µg/mL; in data set [4] it was 16 µg/mL; in [5] (Pseudomonas aeruginosa, strain PAO1), 64 µg/mL; in data set [6], 32 µg/mL. The “activity compared to cetylpyridinium chloride” value in data set [5] (P. aeruginosa) is “more active”. For the same compound, the half-inhibitory concentration (IC50) in data set [7] (Candida albicans, SC5314, established 24 h biofilm, treated 24 h, XTT, read-out: biofilm metabolic activity IC50) is 18.4 µg/mL. For the same compound, in [7] (IC50 versus planktonic MIC), the “reduction of biofilm activity relative to planktonic growth” value came to 4 fold. For the same compound, in data set [8], the “red blood cell lysis LD50” value was 26.9 µg/mL. The “reduction of fungal burden of colonized porcine skin” value in data set [9] (8 μg/mL, 24 hours after a single treatment) was “about 1 log10”. Besides, the “fungal burden of colonized porcine skin” value in data set [9] (16 μg/mL versus 8 μg/mL, 24 hours) is given as “not reduced further”. The “reduction of C. auris colonization of skin” value in data set [9] (8 or 16 μg/mL, 24 hours) is reported as “about 1 log10 CFU”.
